Laboratory results reported in PMC9088311, “Cyclic Thiosulfonates for Thiol-Mediated Uptake: Cascade Exchangers, Transporters, Inhibitors” (JACS Au, 2022).

Assays:
[1] = system: A549 human lung alveolar basal epithelium cells overexpressing ACE2 and TMPRSS2; settings: inhibitor 5 μM
HeLa Kyoto cells = experiment: Relative viability (HOE/PI) in HCHT screening; settings: with transporter 31; co-incubation (C)
Method in brief: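 HK cells exposed to increasing inhibitor concentrations, then fluorescent transporters at constant concentration, either after inhibitor removal (pre-incubation) or without removal (co-incubation).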

HK cells, transporter 31 = experiment: HCHT imaging: inhibition of cytosolic delivery of ETP transporter 31; assay type: cell-based, Human; settings: transporter 31 10 μM, co-incubation (C), inhibitor 1 h
Method in brief: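 HeLa Kyoto cells grown 24 h in FluoroBrite DMEM + 10% FBS on 96-well black plates were exposed to serially diluted inhibitors for 1 h at 37 °C, then given fluorescent transporter 31 at 10 μM for 30 min, either after washing the inhibitor out (pre-incubation) or with it still present (co-incubation). Cytosolic delivery was then scored by automated HCHT live-cell imaging with Hoechst 33342 and PI staining.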

HeLa Kyoto (HK) cells = experiment: Cellular uptake of fluorescent transporters (HCHT imaging, SDCM); assay type: cell-based, Human; settings: 10, 20, 50 μM transporter
Protocol: Cellular uptake was measured by automated high-content high-throughput (HCHT) imaging.[51] This method provides access to biologically meaningful and statistically relevant data from thousands of cells within a very short time. For the uptake monitoring, HeLa Kyoto (HK) cells in multiwell plates were incubated with the fluorescent transporters 28–30 for 1 h, washed, and imaged by spinning disk confocal microscopy (SDCM) to quantify the fluorescent transporters that have entered the cells. […] The better activity of CTOs 28 compared to 29 was consistent with the concept of hydrophobic directing groups, expected to guide CTOs into an aprotic environment within membranes or proteins to activate the sulfinate exchanger and thus turn on dynamic covalent exchange cascades with cellular partners (Figure 2D). The passive diffusion of transporter 28 across the membrane is conceivable but unlikely because this process can be inhibited by other CAXs (see the next section).
4. High-Content High-Throughput (HCHT) Inhibitor Screening […]
The distribution of fluorescence stained cells was analyzed without fixing using an IXM-C automated microscope. 4 images per well were recorded using 10× objective lens, and fluorescent images were acquired with three channels, blue with 377/50 nm excitation filter and 477/60 nm emission filter, green for FITC transporter with 475/34 nm excitation filter and […]

## CC(C)(C)OC(=O)NCCNC(=O)O[C@H]1CSS(=O)(=O)C[C@H]1O[Si](C)(C)C(C)(C)C (racemic) [Compound 50]
[1]
  RV, relative cell viability: 110 ± 10%
HeLa Kyoto cells
  RV50 (concentration needed to lower relative viability by 50%): ≈ 20 μM
HK cells, transporter 31; read-out: IC50 (concentration needed to reach 50% inhibition)
  IC50: 20 ± 3 µM
HK cells, transporter 31
  MIC (concentration needed to reach 15% inhibition): 5.6 µM

## CC(C)(C)[Si](C)(C)O[C@H]1CS(=O)(=O)SC[C@@H]1OCC(=O)NCCNC(=S)Nc1ccc(-c2c3ccc(=O)cc-3oc3cc(O)ccc23)c(C(=O)O)c1 [Compound 28]
HeLa Kyoto (HK) cells
  cellular uptake, fluorescence intensity of HK cells (in words): more active than the AspA 30 standard

## O=C(CO[C@H]1CSS(=O)(=O)C[C@@H]1O)NCCNC(=S)Nc1ccc(-c2c3ccc(=O)cc-3oc3cc(O)ccc23)c(C(=O)O)c1 [Compound 29]
HeLa Kyoto (HK) cells
  cellular uptake, fluorescence intensity of HK cells (in words): more active than the AspA 30 standard
